Positions of bridges follow the written chain, without caps; N, C: chain ends. Non-standard residues stand in square brackets, D forms with d. Residues, ends and D or L forms follow the SMILES beside them. *: point of attachment. Malonyl(2,2-Me2,histaminyl) = CC(C)(C(=O)NCCc1cnc[nH]1)C(=O)*; Ala(1H-tetrazol-5-yl) = N[C@@H](Cc1nnn[nH]1)C(=O)O; αMeL = CC(C)C[C@](C)(N)C(=O)O; Nle = CCCC[C@H](N)C(=O)O; Aib = CC(C)(N)C(=O)O
How the values were obtained:
human GLP2 receptor = target: T1, human GLP2 receptor (Homo sapiens, UniProt O95838); assay: cAMP accumulation assay, functional agonism of human GLP2 receptor; format: cell-based; conditions: HEK cells infected with human GLP2 receptor BacMam virus, HTRF cAMP; for Emax: HEK293, read-out: Human GLP-2R agonist cAMP Emax; for EC50: read-out: Human GLP-2R agonist cAMP pEC50 (converted)
T1 construct: expressed in transfected cells; host or cells: HEK cells, BacMam virus transduction
T1 sequence (O95838 1-553): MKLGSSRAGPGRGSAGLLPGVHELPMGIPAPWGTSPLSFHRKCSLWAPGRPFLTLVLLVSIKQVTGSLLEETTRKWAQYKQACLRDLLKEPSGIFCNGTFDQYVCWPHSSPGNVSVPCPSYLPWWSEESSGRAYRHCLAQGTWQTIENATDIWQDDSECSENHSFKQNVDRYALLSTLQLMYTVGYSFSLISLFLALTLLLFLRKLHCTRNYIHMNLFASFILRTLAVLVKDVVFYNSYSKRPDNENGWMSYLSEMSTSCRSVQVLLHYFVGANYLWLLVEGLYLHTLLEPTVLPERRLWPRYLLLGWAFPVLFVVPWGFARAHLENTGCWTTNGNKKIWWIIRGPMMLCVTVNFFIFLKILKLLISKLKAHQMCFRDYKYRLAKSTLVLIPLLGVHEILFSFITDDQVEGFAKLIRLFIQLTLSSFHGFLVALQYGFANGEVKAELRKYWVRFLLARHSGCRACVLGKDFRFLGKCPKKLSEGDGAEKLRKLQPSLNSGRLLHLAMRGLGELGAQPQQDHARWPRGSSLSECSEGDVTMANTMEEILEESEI
Procedure, shortened: (§1)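 Agonist-driven cAMP production was quantified by homogeneous time-resolved fluorescence. Receptor expression in HEK cells came from a 24-hour BacMam infection, and cells were frozen ahead of the assay. Incubation lasted 45 min at 37° C in HBSS supplemented with 0.5 mM IBMX.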

human GLP1 receptor = target: T2, human GLP1 receptor (Homo sapiens, UniProt P43220); assay: cAMP accumulation assay, functional agonism of human GLP1 receptor; format: cell-based; conditions: HEK cells infected with human GLP1 receptor BacMam virus, HTRF cAMP; for Emax: HEK293, read-out: Human GLP-1R agonist cAMP Emax; for EC50: read-out: Human GLP-1R agonist cAMP pEC50 (converted)
T2 construct: expressed in transfected cells; host or cells: HEK cells, BacMam virus transduction
T2 sequence (P43220 24-463): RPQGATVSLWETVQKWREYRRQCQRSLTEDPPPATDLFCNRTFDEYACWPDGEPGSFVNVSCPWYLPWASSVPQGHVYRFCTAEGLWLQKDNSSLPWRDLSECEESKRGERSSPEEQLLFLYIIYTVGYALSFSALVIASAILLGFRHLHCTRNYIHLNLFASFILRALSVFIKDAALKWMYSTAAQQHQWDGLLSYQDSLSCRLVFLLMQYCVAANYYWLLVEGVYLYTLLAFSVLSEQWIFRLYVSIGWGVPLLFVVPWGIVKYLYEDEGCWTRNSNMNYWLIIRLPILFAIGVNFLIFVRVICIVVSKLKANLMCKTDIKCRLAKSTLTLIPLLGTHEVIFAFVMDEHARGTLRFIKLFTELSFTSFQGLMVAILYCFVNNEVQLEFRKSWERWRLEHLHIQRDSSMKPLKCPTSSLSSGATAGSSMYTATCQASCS
Procedure, shortened: as §1

[1] = Stability of peptides in Fasted-State Simulated Intestinal Fluid (FaSSIF); format: in vitro ADME; conditions: FaSSIF with 10 mg/ml pancreatin; t=30 mins, 37° C., pH 6.5, 10 mg/ml pancreatin
mouse GLP2 receptor = target: T3, mouse GLP2 receptor (Mus musculus, UniProt Q5IXF8); assay: cAMP accumulation assay, functional agonism of mouse GLP2 receptor; format: cell-based; conditions: HEK cells transiently transfected with mouse GLP2 receptor, HTRF cAMP
T3 construct: expressed in transfected cells; host or cells: HEK cells, transient transfection with GeneJuice
T3 sequence (Q5IXF8 1-512): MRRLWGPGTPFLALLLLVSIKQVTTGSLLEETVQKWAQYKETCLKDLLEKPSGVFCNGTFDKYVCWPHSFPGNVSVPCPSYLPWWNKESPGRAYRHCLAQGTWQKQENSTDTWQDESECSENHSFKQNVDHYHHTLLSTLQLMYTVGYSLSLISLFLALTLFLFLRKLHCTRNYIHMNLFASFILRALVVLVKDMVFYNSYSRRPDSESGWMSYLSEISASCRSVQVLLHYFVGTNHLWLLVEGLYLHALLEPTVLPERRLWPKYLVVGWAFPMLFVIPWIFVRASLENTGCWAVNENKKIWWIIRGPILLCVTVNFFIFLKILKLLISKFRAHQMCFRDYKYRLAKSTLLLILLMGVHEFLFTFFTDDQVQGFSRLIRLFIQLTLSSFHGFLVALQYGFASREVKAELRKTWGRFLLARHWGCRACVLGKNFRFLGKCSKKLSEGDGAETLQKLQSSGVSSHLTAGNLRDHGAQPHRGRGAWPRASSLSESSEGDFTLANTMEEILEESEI
Procedure, shortened: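 pEC50 values come from four-parameter fits of HTRF cAMP signal, read after lysis and 1 h RT incubation. Compounds were incubated 45 min at 37 °C with previously frozen, transiently transfected HEK cells (8000/well) in HBSS containing 0.5 mM IBMX.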

| Emax (human GLP2 receptor) [%] | EC50 (human GLP2 receptor) [nM] | Emax (human GLP1 receptor) [%] | EC50 (human GLP1 receptor) [nM] | remaining at 0.5 h [1] [%] | Emax (mouse GLP2 receptor; HEK293, read-out: Mouse GLP-2R agonist cAMP Emax) [%] | EC50 (mouse GLP2 receptor; read-out: Mouse GLP-2R agonist cAMP pEC50 (converted)) [nM] | Structure (SMILES) |
| --- | --- | --- | --- | --- | --- | --- | --- |
| 103 | 0.01 | 94.7 | 0.501 | 4.3 |  |  | CCCC[C@@H]1NC(=O)[C@H](CCC(=O)O)NC(=O)[C@@H](NC(=O)[C@H](CO)NC(=O)[C@H](Cc2ccccc2)NC(=O)[C@H](CO)NC(=O)CNC(=O)[C@H](CC(=O)O)NC(=O)C(C)(C)NC(=O)[C@@H](N)Cc2c[nH]cn2)CCCCNC(=O)C[C@@H](C(=O)N[C@H](C(=O)N[C@@H](CC(C)C)C(=O)N[C@@H](CC(=O)O)C(=O)N[C@H]2CCC(=O)NCCCC[C@@H](C(=O)N[C@@H](CC(=O)O)C(=O)N[C@@H](Cc3ccccc3)C(=O)N[C@H](C(=O)N[C@@H](CC(N)=O)C(=O)N[C@@H](Cc3c[nH]c4ccccc34)C(=O)N[C@@H](CC(C)C)C(=O)N[C@H](C(=O)N[C@@H](CCC(N)=O)C(=O)N[C@H]3CCC(=O)NCCCC[C@@H](C(N)=O)NC(=O)[C@H]([C@@H](C)O)NC(=O)[C@H]([C@@H](C)CC)NC(=O)[C@H](CCCCN)NC3=O)[C@@H](C)CC)[C@@H](C)CC)NC(=O)[C@H](C)NC(=O)[C@H](C)NC(=O)[C@H](CCCCN)NC2=O)[C@@H](C)CC)NC(=O)[C@@H](Cc2ccccc2)NC1=O [Example 4] (H-H[Aib]DGSFSKE[Nle][dF]DILDEKAAKDFINWLIQEKITK-NH2; lactam 8-12, 16-20, 29-33 (inferred); C-terminus assumed) |
| 105 | 0.0794 | 95.3 | 0.251 | 22.3 |  |  | CCCC[C@@H]1NC(=O)[C@H](CCC(=O)O)NC(=O)[C@@H](NC(=O)[C@H](CO)NC(=O)[C@H](Cc2ccccc2)NC(=O)[C@H](CO)NC(=O)CNC(=O)[C@H](Cc2nn[nH]n2)NC(=O)C(C)(C)C(=O)NCCc2c[nH]cn2)CCCCNC(=O)C[C@@H](C(=O)N[C@@](C)(CC(C)C)C(=O)N[C@@H](CC(C)C)C(=O)N[C@@H](CC(=O)O)C(=O)N[C@H]2CCC(=O)NCCCC[C@@H](C(=O)N[C@@H](CC(=O)O)C(=O)N[C@@H](Cc3ccccc3)C(=O)N[C@H](C(=O)N[C@@H](CC(N)=O)C(=O)N[C@@H](Cc3c[nH]c4ccccc34)C(=O)N[C@@H](CC(C)C)C(=O)N[C@H](C(=O)N[C@@H](CCC(N)=O)C(=O)N[C@H](C(=O)N[C@H]3CCC(=O)NCCCC[C@@H](C(N)=O)NC(=O)[C@H]([C@@H](C)O)NC(=O)[C@H]([C@@H](C)CC)NC3=O)[C@@H](C)O)[C@@H](C)CC)[C@@H](C)CC)NC(=O)[C@H](C)NC(=O)[C@H](C)NC(=O)[C@H](CCCCN)NC2=O)NC(=O)[C@@H](Cc2ccccc2)NC1=O [Example 11] ({Malonyl(2,2-Me2,histaminyl)}-[Ala(1H-tetrazol-5-yl)]GSFSKE[Nle][dF]D[αMeL]LDEKAAKDFINWLIQTEITK-NH2; lactam 6-10, 14-18, 28-31 (inferred); C-terminus assumed) |
| 105 | 0.0501 | 94.5 | 0.251 | 10.7 |  |  | CCCC[C@@H]1NC(=O)[C@H](CCC(=O)O)NC(=O)[C@@H](NC(=O)[C@H](CO)NC(=O)[C@H](Cc2ccccc2)NC(=O)[C@H](CO)NC(=O)CNC(=O)[C@H](Cc2nn[nH]n2)NC(=O)C(C)(C)C(=O)NCCc2c[nH]cn2)CCCCNC(=O)C[C@@H](C(=O)N[C@H](C(=O)N[C@@H](CC(C)C)C(=O)N[C@@H](CC(=O)O)C(=O)N[C@H]2CCC(=O)NCCCC[C@@H](C(=O)N[C@@H](CC(=O)O)C(=O)N[C@@H](Cc3ccccc3)C(=O)N[C@H](C(=O)N[C@@H](CC(N)=O)C(=O)N[C@@H](Cc3c[nH]c4ccccc34)C(=O)N[C@@H](CC(C)C)C(=O)N[C@H](C(=O)N[C@@H](CCC(N)=O)C(=O)N[C@H](C(=O)N[C@H]3CCC(=O)NCCCC[C@@H](C(N)=O)NC(=O)[C@H]([C@@H](C)O)NC(=O)[C@H]([C@@H](C)CC)NC3=O)[C@@H](C)O)[C@@H](C)CC)[C@@H](C)CC)NC(=O)[C@H](C)NC(=O)C(C)(C)NC(=O)[C@H](CCCCN)NC2=O)[C@@H](C)CC)NC(=O)[C@@H](Cc2ccccc2)NC1=O [Example 12] ({Malonyl(2,2-Me2,histaminyl)}-[Ala(1H-tetrazol-5-yl)]GSFSKE[Nle][dF]DILDEK[Aib]AKDFINWLIQTEITK-NH2; lactam 6-10, 14-18, 28-31; C-terminus assumed) |
| 104 | 0.0316 | 92.5 | 0.251 | 3.8 |  |  | CCCC[C@@H]1NC(=O)[C@H](CCC(=O)O)NC(=O)[C@@H](NC(=O)[C@H](CO)NC(=O)[C@H](Cc2ccccc2)NC(=O)[C@H](CO)NC(=O)CNC(=O)[C@H](Cc2nn[nH]n2)NC(=O)C(C)(C)C(=O)NCCc2c[nH]cn2)CCCCNC(=O)C[C@@H](C(=O)N[C@H](C(=O)N[C@@H](CC(C)C)C(=O)N[C@@H](CC(=O)O)C(=O)N[C@H]2CCC(=O)NCCCC[C@@H](C(=O)N[C@@H](CC(=O)O)C(=O)N[C@@H](Cc3ccccc3)C(=O)N[C@H](C(=O)N[C@@H](CC(N)=O)C(=O)N[C@@H](Cc3c[nH]c4ccccc34)C(=O)N[C@@H](CC(C)C)C(=O)N[C@H](C(=O)N[C@@H](CCC(N)=O)C(=O)N[C@H](C(=O)N[C@H]3CCC(=O)NCCCC[C@@H](C(=O)N4CCC[C@H]4C(N)=O)NC(=O)[C@H]([C@@H](C)O)NC(=O)[C@H]([C@@H](C)CC)NC3=O)[C@@H](C)O)[C@@H](C)CC)[C@@H](C)CC)NC(=O)[C@H](C)NC(=O)[C@H](C)NC(=O)[C@H](CCCCN)NC2=O)[C@@H](C)CC)NC(=O)[C@@H](Cc2ccccc2)NC1=O [Example 13] ({Malonyl(2,2-Me2,histaminyl)}-[Ala(1H-tetrazol-5-yl)]GSFSKE[Nle][dF]DILDEKAAKDFINWLIQTEITKP-NH2; lactam 6-10, 14-18, 28-31 (inferred); C-terminus assumed) |
| 101 | 0.00126 | 99.3 | 20 |  | 99 | 0.02 | CCCC[C@H](NC(=O)[C@H](CCC(=O)O)NC(=O)[C@H](CC(=O)O)NC(=O)[C@H](CO)NC(=O)[C@H](Cc1ccccc1)NC(=O)[C@H](CO)NC(=O)CNC(=O)[C@H](CC(=O)O)NC(=O)C(C)(C)NC(=O)[C@@H](N)Cc1c[nH]cn1)C(=O)N[C@H](Cc1ccccc1)C(=O)N[C@H](C(=O)N[C@H](C(=O)N[C@@H](CC(C)C)C(=O)N[C@@H](CC(=O)O)C(=O)N[C@H]1CCCCNC(=O)CC[C@@H](C(=O)N[C@@H](CC(=O)O)C(=O)N[C@@H](Cc2ccccc2)C(=O)N[C@H](C(=O)N[C@@H](CC(N)=O)C(=O)N[C@@H](Cc2c[nH]c3ccccc23)C(=O)N[C@@H](CC(C)C)C(=O)N[C@H](C(=O)N[C@@H](CCC(N)=O)C(=O)N[C@H](C(=O)N[C@@H](CCCCN)C(=O)N[C@H](C(=O)N[C@H](C(=O)N[C@@H](CC(=O)O)C(N)=O)[C@@H](C)O)[C@@H](C)CC)[C@@H](C)O)[C@@H](C)CC)[C@@H](C)CC)NC(=O)[C@H](C)NC(=O)[C@H](C)NC(=O)[C@H](CCCCN)NC1=O)[C@@H](C)CC)[C@@H](C)O [Example 102] (H-H[Aib]DGSFSDE[Nle][dF]TILDKKAAEDFINWLIQTKITD-NH2; lactam 16-20; N-terminus and C-terminus assumed) |

Reference: patent publication US20240270809A1, “ORAL GLP RECEPTOR AGONISTS” (priority 2020, published 2024)
